Columns and labels:
[1] = biological target: T1, isolated recombinant JAK1 kinase domain (Homo sapiens, UniProt P23458); experiment: JAK1 enzyme assay (Caliper LabChip, Ki); assay type: biochemical; conditions: recombinant JAK1 kinase domain, 25 μM ATP
T1 construct: The activity of the isolated recombinant JAK1 and JAK2 kinase domain was measured
Summary of the method: (§1)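 Values are Ki estimates derived with the Morrison tight-binding equation modified for competition with ATP. Activity of the recombinant kinase domains was measured as peptide phosphorylation on a Caliper LabChip after a 30-minute, 22° C reaction terminated by EDTA.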

[2] = system: JAK1-dependent STAT6 phosphorylation downstream of IL-13 stimulation in BEAS-2B human bronchial epithelial cells; experiment: JAK1 pathway assay in BEAS-2B cells (IL-13 stimulated STAT6 phosphorylation, MSD); assay type: cell-based; conditions: read-out: P-STAT6 BEAS2B + IL13 IC50
Summary of the method: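 BEAS-2B human bronchial epithelial cells, plated the day before in complete growth medium, were preincubated with compound for 1 hr at 37° C (0.2% DMSO final), then stimulated with IL-13 at its EC90 for 15 min. STAT6 phosphorylation in lysates was read by MSD; EC50 was taken as 50% inhibition versus DMSO control.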

[3] = biological target: T2, isolated recombinant JAK2 kinase domain (Homo sapiens, UniProt O60674); experiment: JAK2 enzyme assay (Caliper LabChip, Ki); assay type: biochemical; conditions: 25 μM ATP
T2 construct: The activity of the isolated recombinant JAK1 and JAK2 kinase domain was measured
T2 sequence (O60674 849-1124 limits assumed): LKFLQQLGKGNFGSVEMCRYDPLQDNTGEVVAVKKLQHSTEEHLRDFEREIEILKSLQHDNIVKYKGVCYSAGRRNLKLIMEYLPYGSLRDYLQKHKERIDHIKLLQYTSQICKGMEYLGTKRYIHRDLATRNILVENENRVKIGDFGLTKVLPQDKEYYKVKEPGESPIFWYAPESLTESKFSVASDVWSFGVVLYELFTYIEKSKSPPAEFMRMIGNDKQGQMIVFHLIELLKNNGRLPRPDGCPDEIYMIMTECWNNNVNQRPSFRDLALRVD
Summary of the method: as §1

T1 sequence (P23458 875-1153 limits assumed): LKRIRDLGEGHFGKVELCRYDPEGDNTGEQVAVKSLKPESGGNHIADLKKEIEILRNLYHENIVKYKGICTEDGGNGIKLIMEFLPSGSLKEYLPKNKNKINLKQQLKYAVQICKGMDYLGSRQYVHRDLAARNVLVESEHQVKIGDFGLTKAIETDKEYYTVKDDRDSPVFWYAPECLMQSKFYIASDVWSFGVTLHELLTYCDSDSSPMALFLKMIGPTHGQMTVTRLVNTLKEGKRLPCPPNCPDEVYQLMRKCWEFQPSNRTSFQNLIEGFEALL

## CC(C)Sc1ccc(OC(F)F)c(-c2nn(CC(=O)N3CCC(N(C)CC(=O)N4CCOCC4)CC3)cc2NC(=O)c2cnn3cccnc23)c1 [Example 154, N-[3-[2-(difluoromethoxy)-5-isopropylsulfanyl-phenyl]-1-[2-[4-[methyl-(2-morpholino-2-oxo-ethyl)amino]-1-piperidyl]-2-oxo-ethyl]pyrazol-4-yl]pyrazolo[1,5-a]pyrimidine-3-carboxamide]
[1]
  Ki: 420 pM
[2]
  IC50: 81000 pM
[3]
  Ki: 1500 pM

## CC(C)Sc1ccc(OC(F)F)c(-c2nn(CC(=O)N3CCC(N4CCO[C@@H](CO)C4)CC3)cc2NC(=O)c2cnn3cccnc23)c1 [Example 155, N-[3-[2-(difluoromethoxy)-5-isopropylsulfanyl-phenyl]-1-[2-[4-[(2R)-2-(hydroxymethyl)morpholin-4-yl]-1-piperidyl]-2-oxo-ethyl]pyrazol-4-yl]pyrazolo[1,5-a]pyrimidine-3-carboxamide]
[1]
  Ki: 310 pM
[2]
  IC50: 48000 pM
[3]
  Ki: 990 pM

## CC(C)Sc1ccc(OC(F)F)c(-c2nn(Cc3cn(C4CCN(C5CCOC5)CC4)nn3)cc2NC(=O)c2cnn3cccnc23)c1 (stereo not drawn) [Example 156, N-[3-[2-(difluoromethoxy)-5-(propan-2-ylsulfanyl)phenyl]-1-([1-[1-(oxolan-3-yl)piperidin-4-yl]-1H-1,2,3-triazol-4-yl]methyl)-1H-pyrazol-4-yl]pyrazolo[1,5-a]pyrimidine-3-carboxamide]
[1]
  Ki: 360 pM
[2]
  IC50: 21000 pM
[3]
  Ki: 290 pM

## CC(=O)N1CCN(CC2CCN(C(=O)Cn3cc(NC(=O)c4cnn5cccnc45)c(-c4cc(SC(C)C)ccc4OC(F)F)n3)CC2)CC1 [Example 157, N-[1-[2-[4-[(4-acetylpiperazin-1-yl)methyl]-1-piperidyl]-2-oxo-ethyl]-3-[2-(difluoromethoxy)-5-isopropylsulfanyl-phenyl]pyrazol-4-yl]pyrazolo[1,5-a]pyrimidine-3-carboxamide]
[1]
  Ki: 270 pM
[2]
  IC50: 47000 pM
[3]
  Ki: 770 pM

## CC(C)Sc1ccc(OC(F)F)c(-c2nn(CC(=O)N3CCC(N4CCOC[C@@H]4CO)CC3)cc2NC(=O)c2cnn3cccnc23)c1 [Example 158, N-[3-[2-(difluoromethoxy)-5-isopropylsulfanyl-phenyl]-1-[2-[4-[(3S)-3-(hydroxymethyl)morpholin-4-yl]-1-piperidyl]-2-oxo-ethyl]pyrazol-4-yl]pyrazolo[1,5-a]pyrimidine-3-carboxamide]
[1]
  Ki: 590 pM
[2]
  IC50: 91000 pM
[3]
  Ki: 1000 pM

## Cn1cc(NC(=O)c2cnn3cccnc23)c(-c2cc(SC(CF)CF)ccc2OC(F)F)n1 [Example 159, N-[3-[2-(difluoromethoxy)-5-[(1,3-difluoropropan-2-yl)sulfanyl]phenyl]-1-methyl-1H-pyrazol-4-yl]pyrazolo[1,5-a]pyrimidine-3-carboxamide]
[1]
  Ki: 160 pM
[2]
  IC50: 3900 pM
[3]
  Ki: 97 pM

## O=C(Nc1c[nH]nc1-c1cc(SC2CC2)ccc1OC(F)F)c1cnn2cccnc12 [Example 160, N-[3-[5-(cyclopropylsulfanyl)-2-(difluoromethoxy)phenyl]-1H-pyrazol-4-yl]pyrazolo[1,5-a]pyrimidine-3-carboxamide]
[1]
  Ki: 98 pM
[2]
  IC50: 7300 pM
[3]
  Ki: 56 pM

## O=C(Nc1cn(CC(=O)N2CCC(N3CCOCC3)CC2)nc1-c1cc(SC2CC2)ccc1OC(F)F)c1cnn2cccnc12 [Example 161, N-[3-[5-cyclopropylsulfanyl-2-(difluoromethoxy)phenyl]-1-[2-(4-morpholino-1-piperidyl)-2-oxo-ethyl]pyrazol-4-yl]pyrazolo[1,5-a]pyrimidine-3-carboxamide]
[1]
  Ki: 300 pM
[2]
  IC50: 16000 pM
[3]
  Ki: 640 pM

## O=C(Nc1cn(CC(=O)N2CCC(CN3CCOCC3)CC2)nc1-c1cc(SC2CC2)ccc1OC(F)F)c1cnn2cccnc12 [Example 162, N-[3-[5-cyclopropylsulfanyl-2-(difluoromethoxy)phenyl]-1-[2-[4-(morpholinomethyl)-1-piperidyl]-2-oxo-ethyl]pyrazol-4-yl]pyrazolo[1,5-a]pyrimidine-3-carboxamide]
[1]
  Ki: 420 pM
[2]
  IC50: 15000 pM
[3]
  Ki: 980 pM
